In patent US9714252B2, “Cyclic sulfonamides as sodium channel blockers” (priority 2012, dated 2017) one finds IC50 data, which are given here for 7 compounds.

What is called IC50 is the midpoint of a concentration-inhibition curve.

Chain of human Nav1.7 (Q15858 with tags, fused parts or gaps limits assumed): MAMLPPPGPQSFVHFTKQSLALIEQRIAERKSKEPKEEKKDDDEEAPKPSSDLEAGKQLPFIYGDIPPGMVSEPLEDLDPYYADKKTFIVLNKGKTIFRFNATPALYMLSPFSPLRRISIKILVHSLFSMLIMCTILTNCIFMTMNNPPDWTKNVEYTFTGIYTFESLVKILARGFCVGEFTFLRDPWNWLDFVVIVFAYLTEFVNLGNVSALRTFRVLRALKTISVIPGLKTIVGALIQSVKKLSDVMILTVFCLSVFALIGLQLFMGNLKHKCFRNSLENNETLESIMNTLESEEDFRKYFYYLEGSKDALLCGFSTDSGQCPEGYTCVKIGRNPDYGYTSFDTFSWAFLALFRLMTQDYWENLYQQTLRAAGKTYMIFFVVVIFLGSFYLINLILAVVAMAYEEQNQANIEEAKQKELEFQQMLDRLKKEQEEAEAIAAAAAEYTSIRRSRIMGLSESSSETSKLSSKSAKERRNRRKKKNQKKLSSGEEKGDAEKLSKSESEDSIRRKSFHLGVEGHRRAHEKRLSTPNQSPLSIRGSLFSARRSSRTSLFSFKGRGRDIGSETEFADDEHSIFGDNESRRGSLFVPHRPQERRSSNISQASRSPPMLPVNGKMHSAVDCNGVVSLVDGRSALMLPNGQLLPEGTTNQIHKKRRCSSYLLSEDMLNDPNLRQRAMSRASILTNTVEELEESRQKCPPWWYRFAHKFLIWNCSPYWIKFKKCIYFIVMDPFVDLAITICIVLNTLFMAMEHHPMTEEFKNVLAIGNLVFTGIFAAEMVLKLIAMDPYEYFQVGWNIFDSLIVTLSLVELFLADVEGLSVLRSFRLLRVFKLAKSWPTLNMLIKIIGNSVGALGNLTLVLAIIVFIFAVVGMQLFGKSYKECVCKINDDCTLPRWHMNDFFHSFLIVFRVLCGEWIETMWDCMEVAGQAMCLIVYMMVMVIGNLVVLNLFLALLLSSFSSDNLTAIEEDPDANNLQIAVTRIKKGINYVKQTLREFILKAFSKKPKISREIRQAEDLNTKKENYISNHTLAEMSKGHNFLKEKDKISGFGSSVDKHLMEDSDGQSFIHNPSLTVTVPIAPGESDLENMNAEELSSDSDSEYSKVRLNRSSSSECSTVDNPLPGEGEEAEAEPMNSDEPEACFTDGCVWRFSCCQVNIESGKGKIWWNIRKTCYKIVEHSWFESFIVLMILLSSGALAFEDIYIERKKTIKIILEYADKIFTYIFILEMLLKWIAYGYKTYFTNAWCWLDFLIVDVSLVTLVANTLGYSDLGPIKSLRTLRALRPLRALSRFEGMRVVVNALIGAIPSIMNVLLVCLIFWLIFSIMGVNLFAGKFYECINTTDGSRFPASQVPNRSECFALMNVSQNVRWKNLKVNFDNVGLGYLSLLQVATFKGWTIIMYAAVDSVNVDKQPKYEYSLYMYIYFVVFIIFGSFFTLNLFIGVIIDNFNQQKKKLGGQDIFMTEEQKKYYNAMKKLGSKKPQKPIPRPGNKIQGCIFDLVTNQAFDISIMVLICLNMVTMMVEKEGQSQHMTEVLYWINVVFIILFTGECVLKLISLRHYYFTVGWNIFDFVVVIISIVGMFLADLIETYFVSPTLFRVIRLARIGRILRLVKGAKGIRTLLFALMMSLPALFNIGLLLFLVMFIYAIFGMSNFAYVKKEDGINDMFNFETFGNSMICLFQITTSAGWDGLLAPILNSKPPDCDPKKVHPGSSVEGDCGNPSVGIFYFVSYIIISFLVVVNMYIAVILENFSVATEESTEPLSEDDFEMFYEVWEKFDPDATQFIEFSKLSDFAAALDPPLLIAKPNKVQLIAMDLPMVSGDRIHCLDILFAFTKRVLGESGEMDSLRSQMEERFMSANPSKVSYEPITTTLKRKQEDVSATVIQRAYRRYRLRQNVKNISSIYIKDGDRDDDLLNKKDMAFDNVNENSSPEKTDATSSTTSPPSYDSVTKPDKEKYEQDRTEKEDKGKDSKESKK

The first experiment addresses human Nav1.7 (Homo sapiens (Human), UniProt Q15858). The experiment in a line: FLIPR sodium dye assay (CoroNa Green) with KCl and test article pre-incubation, recombinant Nav1.7/HEK293 cells. Type of experiment: cell-based.
Conditions: not given
Turning to `O=S1(=O)c2ccc(N3CCC4(CC3)OCc3ccccc34)cc2CCN1c1nccs1` [Compound 5, 6-(3H-spiro[isobenzofuran-1,4′-piperidin]-1′-yl)-2-(thiazol-2-yl)-3,4-dihydro-2H-benzo[e][1,2]thiazine 1,1-dioxide], the IC50 stood at 766 nM.
On the same count and under the same terms, the value for `O=S1(=O)c2ccc(Oc3ccccc3-c3ccccc3)cc2CCN1c1nccs1` [Compound 6, 6-([1,1′-biphenyl]-2-yloxy)-2-(thiazol-2-yl)-3,4-dihydro-2H-benzo[e][1,2]thiazine 1,1-dioxide] was 1700 nM.

The experiment is the same for the next values; noted with them: recombinant human Nav1.7 in HEK293; veratridine + scorpion venom stimulation.
For `O=S1(=O)c2ccc(-c3ccc(Oc4ccc(C(F)(F)F)cc4)cc3)cc2CCN1c1nccs1` [Compound 7, 2-(thiazol-2-yl)-6-(4-(4-(trifluoromethyl)phenoxy)phenyl)-3,4-dihydro-2H-benzo[e][1,2]thiazine 1,1-dioxide], the concentration for half-maximal inhibition (IC50) stood at 7090 nM.
The same measure, in the same setting: the value for `O=S1(=O)c2ccc(N3CCC4(CC3)OCc3ccccc34)cc2CN1c1nccs1` [Compound 4, 5-(3H-spiro[isobenzofuran-1,4′-piperidin]-1′-yl)-2-(thiazol-2-yl)-2,3-dihydrobenzo[d]isothiazole 1,1-dioxide] was 1380 nM; that for `O=S1(=O)c2ccc(Oc3ccc(C(F)(F)F)cc3-c3ccnnc3)cc2CN1c1nccs1` [Compound 1, 5-(2-(pyridazin-4-yl)-4-(trifluoromethyl)phenoxy)-2-(thiazol-2-yl)-2,3-dihydrobenzo[d]isothiazole 1,1-dioxide] was 1740 nM.
Still for that read-out and setting: the value for `O=S1(=O)c2ccc(Oc3ccccc3-c3ccccc3)cc2CN1c1nccs1` [Compound 2, 5-([1,1′-biphenyl]-2-yloxy)-2-(thiazol-2-yl)-2,3-dihydrobenzo[d]isothiazole 1,1-dioxide] was above 20000 nM; that for `Cn1nccc1-c1cc(Cl)ccc1Oc1ccc2c(c1)CN(c1nccs1)S2(=O)=O` [Compound 3, 5-(4-chloro-2-(1-methyl-1H-pyrazol-5-yl)phenoxy)-2-(thiazol-2-yl)-2,3-dihydrobenzo[d]isothiazole 1,1-dioxide] was 9100 nM.
